What was measured:
[1] = 28-day safety and toxicokinetic study in cats (Example 14); type: in vivo, cat; details: for half-life: both sexes, domestic shorthair, cat, serum, oral, 15 mg/kg
Experimental: The objective of this study was to evaluate the feline safety and toxicokinetic profiles of grapiprant. Twenty-four domestic shorthair cats were randomly assigned to receive placebo or 3, 9, or 15 mg/kg grapiprant in a capsule formulation (3 males and 3 females per group) once daily for 28 days. All cats received their assigned medications as per protocol. Food consumption and behavior were observed daily, bodyweight measured weekly, and clinical pathology analyses on blood run on Days −7, 14, and 25, and urinalysis run on Days −7, and 25. Serial blood samples for toxicokinetic analyses were obtained following the Day 0 and Day 27 doses. Full necropsies and histopathological evaluations were performed following humane euthanasia on Day 28.

[2] = Dose linearity and effect of feeding, PK in cats (Example 10); type: in vivo, cat; details: for Cmax / AUC(0-inf) / Tmax / half-life / AUC(0-t): serum, po
Experimental: Grapiprant was blended in a mixture of excipients as shown in Table 14 and administered orally by capsule to male and female cats.
The day of dosing was defined as Day 0. Following dosing, the animals were evaluated for clinical signs. Blood samples were collected prior to dosing and at 0.25, 0.5, 1, 2, 4, 8, 12, and 24-hours postdose. The blood samples were processed to serum and analyzed for grapiprant concentration. There were no test article-related clinical signs. The mean grapiprant pharmacokinetic results were as follow in Table 16.

[3] = tested on: complete Freund's adjuvant-induced chronic inflammatory pain response; details: cited from earlier work
dog EP4 receptors = dog EP4 receptors (Canis lupus familiaris, UniProt A0A8I3MI92); details: dog EP4 receptor; read-out: Ki, inhibition of [3H]PGE binding; cited from earlier work
[4] = Pharmacokinetics of capsule, suspension and tablets in dogs (Example 3); type: in vivo, dog; details: male dogs; for AUC(0-t) / AUC(0-inf) / Cmax / Tmax / half-life: dog, mean; for AUC(0-t): in vivo; for AUC(0-inf) / Cmax / Tmax / half-life: serum; for AUC0-∞/Dose / Cmax/Dose: dose-normalized mean
Experimental: The objective of this study was to compare the pharmacokinetic profile of several tablet formulations of grapiprant to capsule and aqueous methylcellulose suspension formulations of grapiprant with 20-mg doses. Appropriate amounts of the test article/excipient mixture were placed into gelatin capsules to provide each animal with 20 mg of grapiprant. As the grapiprant content in the excipient blend was 45% of the mixture weight, the total weight of the blend in each capsule was 0.0440 g. The weight tolerance was within ±0.005 g of the nominal capsule content weight.
For the aqueous suspensions (Group 2), the vehicle was 0.5% methyl cellulose (400 centipoise) in water. A 0.3-mg/mL suspension of grapiprant was prepared by adding grapiprant to a calibrated beaker and adding about 60-90% of the 0.5% aqueous methylcellulose to the beaker. A homogenizer was used to blend the material. A stir bar was added to the beaker, and the suspension was stirred for about 5 minutes. The stir bar was removed temporarily to adjust the volume with additional vehicle, and then the suspension was stirred for another 5 minutes before being transferred to a labeled dosing container. The formulation was continuously stirred at the time of dose administration.
Statistical analyses were conducted to determine differences in Cmax, Tmax, and AUCmax Values were normalized by mg/kg, and group means and standard deviations were calculated for numeric data. The actual administered doses ranged from 1.81 to 2.82 mg/kg, and averaged 2.2 mg/kg. No animal was found dead or deemed moribund during the study. All animals were normal at the scheduled observation time of 2 hours postdose.

[5] = Day 0, Group 1: single oral 20 mg API in capsule
[6] = Day 0, Group 2: single oral 2 mg/kg, 0.3 mg/mL methylcellulose suspension
[7] = Day 0, Group 1: 20 mg API in capsule
[8] = Day 0, Group 2: methylcellulose suspension

Sequence of dog EP4 receptors (A0A8I3MI92 1-492): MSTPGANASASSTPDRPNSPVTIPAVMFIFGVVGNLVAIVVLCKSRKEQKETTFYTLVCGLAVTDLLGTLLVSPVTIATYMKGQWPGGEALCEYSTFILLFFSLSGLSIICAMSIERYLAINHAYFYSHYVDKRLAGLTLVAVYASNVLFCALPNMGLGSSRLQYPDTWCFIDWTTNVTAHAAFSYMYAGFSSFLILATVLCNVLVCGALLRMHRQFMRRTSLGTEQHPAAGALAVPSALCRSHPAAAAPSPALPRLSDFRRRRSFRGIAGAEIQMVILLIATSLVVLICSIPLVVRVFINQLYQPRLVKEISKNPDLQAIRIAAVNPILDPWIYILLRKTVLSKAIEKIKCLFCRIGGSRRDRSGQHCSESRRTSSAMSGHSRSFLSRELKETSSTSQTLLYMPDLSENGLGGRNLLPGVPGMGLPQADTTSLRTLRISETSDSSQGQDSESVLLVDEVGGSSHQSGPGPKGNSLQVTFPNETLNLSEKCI

## CCc1nc2c(C)nc(C)cc2n1-c1ccc(CCNC(=O)NS(=O)(=O)c2ccc(C)cc2)cc1 [grapiprant, N-{2-[4-(2-ethyl-4,6-dimethyl-1H-imidazo[4,5-c]pyridin-1-yl)phenyl]ethyl}-N′-[(4-methylphenyl)sulfonyl]urea]
[1]; capsule 3, 9, or 15 mg/kg once daily, Day 27, read-out: Mean half-lives
  half-life: 180 to 840 min
[1]; capsule 3, 9, or 15 mg/kg once daily, Day 27, read-out: half-life, median value
  half-life: 300 to 360 min
[1]; capsule 3, 9, or 15 mg/kg once daily for 28 days
  tolerability and adverse effects: well tolerated, and no adverse effects were noted at daily doses up to 15 mg/kg for 28 days
[1]; capsule 3, 9, or 15 mg/kg once daily, Day 27
  time after administration at which maximum serum concentrations were reached: 1 to 4 h
[2]; both sexes, 2 mg/kg, Group 1 fed cats, single oral 2 mg/kg capsule, males and females, read-out: Mean Cmax
  Cmax: 327 to 407 ng/mL
[2]; both sexes, 2 mg/kg, Group 1 fed cats, single oral 2 mg/kg capsule, males and females, read-out: mean AUC0-∞
  AUC(0-inf): 1070 to 1220 ng·h/mL
[2]; both sexes, 2 mg/kg, Group 1 fed cats, single oral 2 mg/kg capsule, males and females, read-out: mean Tmax
  Tmax: 1.33 to 1.65 h
[2]; both sexes, 2 mg/kg, Group 1 fed cats, single oral 2 mg/kg capsule, males and females, read-out: mean terminal half-life
  half-life: 144 to 187 min
[2]; both sexes, 2 mg/kg, Group 2 fasted cats, single oral 2 mg/kg capsule, males and females, read-out: Mean Cmax
  Cmax: 1100 to 1630 ng/mL
[2]; both sexes, 2 mg/kg, Group 2 fasted cats, single oral 2 mg/kg capsule, males and females, read-out: mean AUC0-∞
  AUC(0-inf): 1970 to 2850 ng·h/mL
[2]; both sexes, 2 mg/kg, Group 2 fasted cats, single oral 2 mg/kg capsule, males and females, read-out: mean Tmax
  Tmax: 1.01 h
[2]; both sexes, 2 mg/kg, Group 2 fasted cats, single oral 2 mg/kg capsule, males and females, read-out: mean terminal half-life
  half-life: 88.2 to 130 min
[2]; both sexes, 6 mg/kg, Group 3 fasted cats, single oral 6 mg/kg capsule, males and females, read-out: Mean Cmax
  Cmax: 2970 to 3110 ng/mL
[2]; both sexes, 6 mg/kg, Group 3 fasted cats, single oral 6 mg/kg capsule, males and females, read-out: mean AUC0-∞
  AUC(0-inf): 3750 to 6350 ng·h/mL
[2]; both sexes, 6 mg/kg, Group 3 fasted cats, single oral 6 mg/kg capsule, males and females, read-out: mean Tmax
  Tmax: 0.99 to 1.17 h
[2]; both sexes, 6 mg/kg, Group 3 fasted cats, single oral 6 mg/kg capsule, males and females, read-out: mean terminal half-life
  half-life: 167 to 299 min
[2]; both sexes, 10 mg/kg, Group 4 fasted cats, single oral 10 mg/kg capsule, males and females, read-out: Mean Cmax
  Cmax: 4280 to 7130 ng/mL
[2]; both sexes, 10 mg/kg, Group 4 fasted cats, single oral 10 mg/kg capsule, males and females, read-out: mean AUC0-∞
  AUC(0-inf): 7580 to 10900 ng·h/mL
[2]; both sexes, 10 mg/kg, Group 4 fasted cats, single oral 10 mg/kg capsule, males and females, read-out: mean Tmax
  Tmax: 0.728 to 1.33 h
[2]; both sexes, 10 mg/kg, Group 4 fasted cats, single oral 10 mg/kg capsule, males and females, read-out: mean terminal half-life
  half-life: 242 to 251 min
[2]; cats, one-time oral capsule, 2 (fed and fasted), 6, and 10 mg/kg
  tolerability: well-tolerated with no test article-related clinical signs
[2]; fasted cats, Groups 2-4, 2-10 mg/kg
  dose linearity of exposure (AUC0-∞): roughly dose-linear but less than dose-proportional
[2]; female, 2 mg/kg, cats, Group 1, 2 mg/kg capsule, Fed, Female, mean
  AUC(0-t): 990 ng·h/mL
[2]; female, 2 mg/kg, cats, Group 1, 2 mg/kg capsule, Fed, Female, mean, read-out: AUC0-∞
  AUC(0-inf): 1070 ng·h/mL
[2]; female, 2 mg/kg, cats, Group 1, 2 mg/kg capsule, Fed, Female, mean, read-out: Cmax
  Cmax: 327 ng/mL
[2]; female, 2 mg/kg, cats, Group 1, 2 mg/kg capsule, Fed, Female, mean, read-out: Tmax
  Tmax: 1.33 h
[2]; female, 2 mg/kg, cats, Group 1, 2 mg/kg capsule, Fed, Female, mean, read-out: t1/2 (converted)
  half-life: 144 min
[2]; female, 2 mg/kg, cats, Group 2, 2 mg/kg capsule, Fasted, Female, mean
  AUC(0-t): 2780 ng·h/mL
[2]; female, 2 mg/kg, cats, Group 2, 2 mg/kg capsule, Fasted, Female, mean, read-out: AUC0-∞
  AUC(0-inf): 2850 ng·h/mL
[2]; female, 2 mg/kg, cats, Group 2, 2 mg/kg capsule, Fasted, Female, mean, read-out: Cmax
  Cmax: 1630 ng/mL
[2]; female, 2 mg/kg, cats, Group 2, 2 mg/kg capsule, Fasted, Female, mean, read-out: Tmax
  Tmax: 1.01 h
[2]; female, 2 mg/kg, cats, Group 2, 2 mg/kg capsule, Fasted, Female, mean, read-out: t1/2 (converted)
  half-life: 88.2 min
[2]; female, 6 mg/kg, cats, Group 3, 6 mg/kg capsule, Fasted, Female, mean
  AUC(0-t): 6130 ng·h/mL
[2]; female, 6 mg/kg, cats, Group 3, 6 mg/kg capsule, Fasted, Female, mean, read-out: AUC0-∞
  AUC(0-inf): 6350 ng·h/mL
[2]; female, 6 mg/kg, cats, Group 3, 6 mg/kg capsule, Fasted, Female, mean, read-out: Cmax
  Cmax: 3110 ng/mL
[2]; female, 6 mg/kg, cats, Group 3, 6 mg/kg capsule, Fasted, Female, mean, read-out: Tmax
  Tmax: 1.17 h
[2]; female, 6 mg/kg, cats, Group 3, 6 mg/kg capsule, Fasted, Female, mean, read-out: t1/2 (converted)
  half-life: 299 min
[2]; female, 10 mg/kg, cats, Group 4, 10 mg/kg capsule, Fasted, Female, mean
  AUC(0-t): 10700 ng·h/mL
[2]; female, 10 mg/kg, cats, Group 4, 10 mg/kg capsule, Fasted, Female, mean, read-out: AUC0-∞
  AUC(0-inf): 10900 ng·h/mL
[2]; female, 10 mg/kg, cats, Group 4, 10 mg/kg capsule, Fasted, Female, mean, read-out: Cmax
  Cmax: 7130 ng/mL
[2]; female, 10 mg/kg, cats, Group 4, 10 mg/kg capsule, Fasted, Female, mean, read-out: Tmax
  Tmax: 0.73 h
[2]; female, 10 mg/kg, cats, Group 4, 10 mg/kg capsule, Fasted, Female, mean, read-out: t1/2 (converted)
  half-life: 251 min
[2]; male, 2 mg/kg, cats, Group 1, 2 mg/kg capsule, Fed, Male, mean
  AUC(0-t): 1030 ng·h/mL
[2]; male, 2 mg/kg, cats, Group 1, 2 mg/kg capsule, Fed, Male, mean, read-out: AUC0-∞
  AUC(0-inf): 1220 ng·h/mL
[2]; male, 2 mg/kg, cats, Group 1, 2 mg/kg capsule, Fed, Male, mean, read-out: Cmax
  Cmax: 407 ng/mL
[2]; male, 2 mg/kg, cats, Group 1, 2 mg/kg capsule, Fed, Male, mean, read-out: Tmax
  Tmax: 1.65 h
[2]; male, 2 mg/kg, cats, Group 1, 2 mg/kg capsule, Fed, Male, mean, read-out: t1/2 (converted)
  half-life: 187 min
[2]; male, 2 mg/kg, cats, Group 2, 2 mg/kg capsule, Fasted, Male, mean
  AUC(0-t): 2290 ng·h/mL
[2]; male, 2 mg/kg, cats, Group 2, 2 mg/kg capsule, Fasted, Male, mean, read-out: AUC0-∞
  AUC(0-inf): 1970 ng·h/mL
[2]; male, 2 mg/kg, cats, Group 2, 2 mg/kg capsule, Fasted, Male, mean, read-out: Cmax
  Cmax: 1100 ng/mL
[2]; male, 2 mg/kg, cats, Group 2, 2 mg/kg capsule, Fasted, Male, mean, read-out: Tmax
  Tmax: 1.01 h
[2]; male, 2 mg/kg, cats, Group 2, 2 mg/kg capsule, Fasted, Male, mean, read-out: t1/2 (converted)
  half-life: 130 min
[2]; male, 6 mg/kg, cats, Group 3, 6 mg/kg capsule, Fasted, Male, mean
  AUC(0-t): 3650 ng·h/mL
[2]; male, 6 mg/kg, cats, Group 3, 6 mg/kg capsule, Fasted, Male, mean, read-out: AUC0-∞
  AUC(0-inf): 3750 ng·h/mL
[2]; male, 6 mg/kg, cats, Group 3, 6 mg/kg capsule, Fasted, Male, mean, read-out: Cmax
  Cmax: 2970 ng/mL
[2]; male, 6 mg/kg, cats, Group 3, 6 mg/kg capsule, Fasted, Male, mean, read-out: Tmax
  Tmax: 0.99 h
[2]; male, 6 mg/kg, cats, Group 3, 6 mg/kg capsule, Fasted, Male, mean, read-out: t1/2 (converted)
  half-life: 167 min
[2]; male, 10 mg/kg, cats, Group 4, 10 mg/kg capsule, Fasted, Male, mean
  AUC(0-t): 7430 ng·h/mL
[2]; male, 10 mg/kg, cats, Group 4, 10 mg/kg capsule, Fasted, Male, mean, read-out: AUC0-∞
  AUC(0-inf): 7580 ng·h/mL
[2]; male, 10 mg/kg, cats, Group 4, 10 mg/kg capsule, Fasted, Male, mean, read-out: Cmax
  Cmax: 4280 ng/mL
[2]; male, 10 mg/kg, cats, Group 4, 10 mg/kg capsule, Fasted, Male, mean, read-out: Tmax
  Tmax: 1.33 h
[2]; male, 10 mg/kg, cats, Group 4, 10 mg/kg capsule, Fasted, Male, mean, read-out: t1/2 (converted)
  half-life: 242 min
[3]
  effect on chronic inflammatory pain response: reverses complete Freund's adjuvant-induced chronic inflammatory pain response
Dog EP4 receptors
  Ki: 24.1 ± 2.7 nM
[4]; [5]
  AUC(0-t): 1580 ng·h/mL
  AUC(0-inf): 1640 ng·h/mL
  Cmax: 804 ng/mL
  Tmax: 64.8 min
  half-life: 330 min
[4]; [6]
  AUC(0-t): 1650 ng·h/mL
  AUC(0-inf): 1870 ng·h/mL
  Cmax: 751 ng/mL
  Tmax: 47.2 min
  half-life: 246 min
[4]; [7]
  AUC0-∞/Dose: 724 (hr*ng/mL)/(mg/kg)
  Cmax/Dose: 359 (ng/mL)/(mg/kg)
[4]; [8]
  AUC0-∞/Dose: 937 (hr*ng/mL)/(mg/kg)
  Cmax/Dose: 376 (ng/mL)/(mg/kg)

From US12109218B2, “Compositions of grapiprant and methods for using the same” (ARATANA THERAPEUTICS, INC., priority 2014, dated 2024)
